Test results from ChEMBL document CHEMBL1144728, “Pyrazolo-pyrimidines: a novel heterocyclic scaffold for potent and selective p38 alpha inhibitors” (Bioorg Med Chem Lett, 2008).

Key:
[1] = Terminal half life in mouse at 10 mg/kg, po; type: ADME, organism-based; set-up: dose 10 mg/kg, route oral; details: in vivo
[2] = Oral bioavailability in mouse at 10 mg/kg; type: ADME, organism-based; details: in vivo
Mus musculus = experiment: Volume of distribution in mouse at 10 mg/kg, po; type: ADME, organism-based; set-up: dose 10 mg/kg, route oral; details: in vivo
Liver microsomes [3] = experiment: Metabolic stability in human liver microsomes assessed as metabolic rate per mg of protein; type: ADME, Microsome
[4] = Clearance in mouse at 10 mg/kg, po; type: ADME, organism-based; set-up: dose 10 mg/kg, route oral; details: in vivo
Liver microsomes [5] = experiment: Metabolic stability in rat liver microsomes assessed as metabolic rate per mg of protein; type: ADME, Microsome

half-life [1]: 4.1 h | bioavailability [2]: 60% | Vd (Mus musculus): 1.3 L/kg | Stability (Liver microsomes [3]): 0 nmol/min | CL/F [4]: 5 mL/min/kg | Stability (Liver microsomes [5]): 0.005 nmol/min/mg
SMILES: Cc1ccc(C(=O)Nc2ccon2)cc1Nc1ncnc2c1cnn2-c1ccccc1
